From patent US10173991B2, “Sulfone amide linked benzothiazole inhibitors of endothelial lipase” (BRISTOL-MYERS SQUIBB COMPANY, priority 2014, dated 2019) come the findings set out here.

The target of this test is Endothelial lipase (EL) (Homo sapiens (Human), UniProt Q9Y5X9). The test is described as follows: Endothelial lipase (EL) enzymatic assay with fluorescent substrate A10070 in DMPG vesicles. The test is classed as biochemical. In a few lines: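 Substrate A10070 sits in sonicated DMPG vesicles at 0.11 mole fraction. Lipase and compound preincubated 30 min, 37° C, in HEPES pH 8.0 buffer with CaCl2.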

Each structure is given as a SMILES string.

Endothelial lipase (EL), sequence (Q9Y5X9 21-500): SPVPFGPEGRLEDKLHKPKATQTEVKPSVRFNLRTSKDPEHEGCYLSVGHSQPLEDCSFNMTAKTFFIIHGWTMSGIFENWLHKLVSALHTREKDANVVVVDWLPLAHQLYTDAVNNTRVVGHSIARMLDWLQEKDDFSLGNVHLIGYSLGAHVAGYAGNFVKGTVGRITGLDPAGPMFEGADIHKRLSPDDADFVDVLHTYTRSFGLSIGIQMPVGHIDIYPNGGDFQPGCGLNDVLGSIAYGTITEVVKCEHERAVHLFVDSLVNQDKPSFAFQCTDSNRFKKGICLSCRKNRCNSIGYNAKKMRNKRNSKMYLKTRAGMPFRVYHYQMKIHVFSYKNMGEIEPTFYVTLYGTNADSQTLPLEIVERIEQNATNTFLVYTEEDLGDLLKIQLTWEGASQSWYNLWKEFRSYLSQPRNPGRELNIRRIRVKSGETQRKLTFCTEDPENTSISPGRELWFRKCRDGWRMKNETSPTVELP

For the compound `COCCS(=O)(=O)C(C(=O)NCC(=O)NC1CC1)c1nc2cc(-c3cnc(F)c(C)c3)ccc2s1` (stereo not shown) [Example 78, N-[(cyclopropyl-carbamoyl)methyl]-2-[5-(6-fluoro-5-methylpyridin-3-yl)-1,3-benzothiazol-2-yl]-2-(2-methoxyethane-sulfonyl) acetamide], the IC50 came out at 38 nM.
For `COCCS(=O)(=O)C(C(=O)NCC(=O)NC1CC1)c1nc2cc(-c3ccncc3)ccc2s1` (stereo not shown) [Example 79, N-[(cyclopropyl-carbamoyl)methyl]-2-(2-methoxyethane-sulfonyl)-2-[5-(pyridin-4-yl)-1,3-benzothiazol-2-yl]acetamide], the IC50 is 40 nM.
Compound `COCCS(=O)(=O)C(C(=O)NCC(=O)NC1CC1)c1nc2cc(-c3ccncc3Cl)ccc2s1` (stereo not shown) [Example 80, 2-[5-(3-chloropyridin-4-yl)-1,3-benzothiazol-2-yl]-N-[(cyclopropyl-carbamoyl)methyl]-2-(2-methoxyethane-sulfonyl) acetamide] registered an IC50 of 49 nM.
For `COCCS(=O)(=O)C(C(=O)NCC(=O)NC1CC1)c1nc2cc(-c3cnc(F)cc3C)ccc2s1` (stereo not shown) [Example 81, N-[(cyclopropyl-carbamoyl)methyl]-2-[5-(6-fluoro-4-methylpyridin-3-yl)-1,3-benzothiazol-2-yl]-2-(2-methoxyethane-sulfonyl) acetamide], the IC50 came to 58 nM.
Turning to `COCCS(=O)(=O)C(C(=O)NCC(=O)NC1CC1)c1nc2cc(-c3cccnc3F)ccc2s1` (stereo not shown) [Example 82, N-[(cyclopropyl-carbamoyl)methyl]-2-[5-(2-fluoropyridin-3-yl)-1,3-benzothiazol-2-yl]-2-(2-methoxyethane-sulfonyl) acetamide], half-maximal inhibition (IC50) required 61 nM.
The figure for `COCCS(=O)(=O)C(C(=O)NCC(=O)NC1CC1)c1nc2cc(-c3ccc(Cl)cn3)ccc2s1` (stereo not shown) [Example 83, 2-[5-(5-chloropyridin-2-yl)-1,3-benzothiazol-2-yl]-N-[(cyclopropyl-carbamoyl)methyl]-2-(2-methoxyethane-sulfonyl)acetamide] is 71 nM; for `COCCS(=O)(=O)C(C(=O)NCC(=O)NC1CC1)c1nc2cc(-c3cccc(OC)c3)ccc2s1` (stereo not shown) [Example 84, N-[(cyclopropyl-carbamoyl)methyl]-2-(2-methoxyethane-sulfonyl)-2-[5-(3-methoxyphenyl)-1,3-benzothiazol-2-yl]acetamide] it is 82 nM.
In turn, `COCCS(=O)(=O)C(C(=O)NCC(=O)NC1CC1)c1nc2cc(-c3cccnc3)ccc2s1` (stereo not shown) [Example 85, N-[(cyclopropyl-carbamoyl)methyl]-2-(2-methoxyethane-sulfonyl)-2-[5-(pyridin-3-yl)-1,3-benzothiazol-2-yl]acetamide] showed an IC50 of 85 nM. The IC50 values of the last two compounds are within 1.5-fold of each other.
As to `COCCS(=O)(=O)C(C(=O)NCC(=O)NC1CC1)c1nc2cc(-c3cncnc3C(C)C)ccc2s1` (stereo not shown) [Example 86, N-[(cyclopropyl-carbamoyl)methyl]-2-(2-methoxyethane-sulfonyl)-2-{5-[4-(propan-2-yl)pyrimidin-5-yl]-1,3-benzothiazol-2-yl}acetamide], it took 293 nM to reach half-maximal inhibition (IC50). This IC50 is about 3.4-fold higher than that of the compound before.
The figure for `CCOc1ncccc1-c1ccc2sc(C(C(=O)NCC(=O)NC3CC3)S(=O)(=O)CCOC)nc2c1` (stereo not shown) [Example 87, N-[(cyclopropyl-carbamoyl)methyl]-2-[5-(2-ethoxypyridin-3-yl)-1,3-benzothiazol-2-yl]-2-(2-methoxyethane-sulfonyl) acetamide] is 346 nM; for `COCCS(=O)(=O)C(C(=O)NCC(=O)NC1CC1)c1nc2cc(-c3ccc(F)nc3C)ccc2s1` (stereo not shown) [Example 88, N-[(cyclopropyl-carbamoyl)methyl]-2-[5-(6-fluoro-2-methylpyridin-3-yl)-1,3-benzothiazol-2-yl]-2-(2-methoxyethane-sulfonyl) acetamide] it is 82 nM; for `COCCS(=O)(=O)C(C(=O)NCC(=O)NC1CC1)c1nc2cc(-c3cccc(F)n3)ccc2s1` (stereo not shown) [Example 89, N-[(cyclopropyl-carbamoyl)methyl]-2-[5-(6-fluoropyridin-2-yl)-1,3-benzothiazol-2-yl]-2-(2-methoxyethane-sulfonyl) acetamide] it is 171 nM.
In the case of `COCCS(=O)(=O)C(C(=O)NCC(=O)NC1CC1)c1nc2cc(-c3ccc(F)cn3)ccc2s1` (stereo not shown) [Example 90, N-[(cyclopropyl-carbamoyl)methyl]-2-[5-(5-fluoropyridin-2-yl)-1,3-benzothiazol-2-yl]-2-(2-methoxyethane-sulfonyl) acetamide] it was 274 nM; in that of `COCCS(=O)(=O)C(C(=O)NCC(=O)NC1CC1)c1nc2cc(-c3cccnc3C)ccc2s1` (stereo not shown) [Example 91, N-[(cyclopropyl-carbamoyl)methyl]-2-(2-methoxyethane-sulfonyl)-2-[5-(2-methylpyridin-3-yl)-1,3-benzothiazol-2-yl]acetamide], 18 nM.
The figure for `COCCS(=O)(=O)C(C(=O)NCC(=O)NC1CC1)c1nc2cc(-c3c(C)ccnc3F)ccc2s1` (stereo not shown) [Example 92, N-[(cyclopropyl-carbamoyl)methyl]-2-[5-(2-fluoro-4-methylpyridin-3-yl)-1,3-benzothiazol-2-yl]-2-(2-methoxyethane-sulfonyl) acetamide] is 77 nM; for `COCCS(=O)(=O)C(C(=O)NCC(=O)NC1CC1)c1nc2ccc(-c3ccc(-c4ncco4)cc3)cc2s1` (stereo not shown) [Example 93, N-[(cyclopropyl-carbamoyl)methyl]-2-(2-methoxyethane-sulfonyl)-2-{6[4-(1,3-oxazol-2-yl)phenyl]-1,3-benzothiazol-2-yl} acetamide] it is 1 nM.
For the compound `COCCS(=O)(=O)C(C(=O)NCC(=O)NC1CC1)c1nc2cc(Cl)c(-c3ccc(NC(=O)OC)cc3)cc2s1` (stereo not shown) [Example 94, methyl N-{4-[5-chloro-2-({[(cyclopropyl-carbamoyl)methyl]carbamoyl}(2-methoxyethane-sulfonyl)methyl)-1,3-benzothiazol-6-yl]phenyl} carbamate], inhibition was half-maximal at 2 nM (IC50).
With `COC(=O)Nc1ccc(-c2ccc3nc(C(C(=O)NCC(=O)NC4CC4)S(C)(=O)=O)sc3c2)cc1` (stereo not shown) [Example 95, methyl N-{4-[2-({[(cyclopropyl-carbamoyl)methyl]carbamoyl} (methanesulfonyl)methyl)-1,3-benzothiazol-6-yl]phenyl}carbamate], the IC50 is 2 nM. In other words, the single-digit nanomolar range.
In turn, `COCCS(=O)(=O)C(C(=O)NCC(=O)NC1CC1)c1nc2cc(Cl)c(-c3ccc(NC(C)=O)cc3)cc2s1` (stereo not shown) [Example 96, 2-[5-chloro-6-(4-acetamidophenyl)-1,3-benzothiazol-2-yl]-N-[(cyclopropyl-carbamoyl)methyl]-2-(2-methoxyethane-sulfonyl) acetamide] came in with an IC50 of 2 nM. This lies in the single-digit nanomolar range.
`COCCS(=O)(=O)C(C(=O)NCC(=O)NC1CC1)c1nc2ccc(-c3ccc(C(=O)NCC(F)(F)F)cc3)cc2s1` (stereo not shown) [Example 97, 4-[2-({[(cyclopropyl-carbamoyl)methyl]carbamoyl}(2-methoxyethane-sulfonyl)methyl)-1,3-benzothiazol-6-yl]-N-(2,2,2-trifluoroethyl) benzamide] gave an IC50 of 4 nM.
With `COCCS(=O)(=O)C(C(=O)NCC(=O)NC1CC1)c1nc2ccc(-c3ccc(NC(C)=O)cc3)cc2s1` (stereo not shown) [Example 98, N-[(cyclopropyl-carbamoyl)methyl]-2-[6-(4-acetamidophenyl)-1,3-benzothiazol-2-yl]-2-(2-methoxyethane-sulfonyl) acetamide], the IC50 turned out to be 8 nM. Compared with the last compound, the IC50 is about 2-fold higher.
The figure for `COCCNC(=O)c1ccc(-c2cc3sc(C(C(=O)NCC(=O)NC4CC4)S(=O)(=O)CCOC)nc3cc2Cl)cc1` (stereo not shown) [Example 99, 4-[5-chloro-2-({[(cyclopropyl-carbamoyl)methyl]carbamoyl}(2-methoxyethane-sulfonyl)methyl)-1,3-benzothiazol-6-yl]-N-(2-methoxyethyl) benzamide] is 8 nM.
In the case of `COCCS(=O)(=O)C(C(=O)NCC(=O)NC1CC1)c1nc2ccc(-c3ccc(NC(=O)OC)cc3)cc2s1` (stereo not shown) [Example 100, methyl N-{4-[2-({[(cyclopropyl-carbamoyl)methyl]carbamoyl}(2-methoxyethane-sulfonyl)methyl)-1,3-benzothiazol-6-yl]phenyl} carbamate] it was 8 nM.
`COCCS(=O)(=O)C(C(=O)NCC(=O)NC1CC1)c1nc2ccc(-c3ccc(-c4nnc(C)o4)cc3)cc2s1` (stereo not shown) [Example 101, N-[(cyclopropyl-carbamoyl)methyl]-2-(2-methoxyethane-sulfonyl)-2-{6-[4-(5-methyl-1,3,4-oxadiazol-2-yl)phenyl]-1,3-benzothiazol-2-yl} acetamide] returned a half-inhibitory concentration (IC50) of 9 nM.
As for `CC(=O)Nc1ccc(-c2ccc3nc(C(C(=O)NCC(=O)NC4CC4)S(C)(=O)=O)sc3c2)cc1` (stereo not shown) [Example 102, N-[(cyclopropyl-carbamoyl)methyl]-2-[6-(4-acetamidophenyl)-1,3-benzothiazol-2-yl]-2-methanesulfonyl-acetamide], the IC50 came out at 14 nM.
Consider `CS(=O)(=O)C(C(=O)NCC(=O)NC1CC1)c1nc2ccc(-c3ccc(C(=O)NCC(F)(F)F)cc3)cc2s1` (stereo not shown) [Example 103, 4-[2-({[(cyclopropyl-carbamoyl)methyl]carbamoyl} (methanesulfonyl)methyl)-1,3-benzothiazol-6-yl]-N-(2,2,2-trifluoroethyl) benzamide], for which 20 nM corresponded to half-maximal inhibition (IC50).
The compound `COCCS(=O)(=O)C(C(=O)NCC(=O)NC1CC1)c1nc2cc(-c3ccc(NC(=O)OC)cc3)ccc2s1` (stereo not shown) [Example 104, methyl N-{4-[2-({[(cyclopropyl-carbamoyl)methyl]carbamoyl}(2-methoxyethane-sulfonyl)methyl)-1,3-benzothiazol-5-yl]phenyl} carbamate] registered an IC50 of 28 nM.
`COCCS(=O)(=O)C(C(=O)NCC(=O)NC1CC1)c1nc2cc(Cl)c(-c3ccc(F)nc3)cc2s1` (stereo not shown) [Example 105, 2-[5-chloro-6-(6-fluoropyridin-3-yl)-1,3-benzothiazol-2-yl]-N-[(cyclopropyl-carbamoyl)methyl]-2-(2-methoxyethane-sulfonyl)acetamide]: half-maximal inhibition (IC50) required 28 nM. In other words, the double-digit nanomolar range.

As a reminder, the IC50 is the concentration that inhibits the measured activity by half. Read a low IC50 as higher potency.
